# Where “and” joins values, the source holds several entries; their conditions need not be identical. Equal entries are not always repeated. Where two headings read alike, the source gives them in different places.
# What was measured:
# [1] = molecular target: T1, PfPanK1 (Plasmodium falciparum, UniProt Q8ILP4); assay type: biochemical
# T1 sequence (Q8ILP4 1-519): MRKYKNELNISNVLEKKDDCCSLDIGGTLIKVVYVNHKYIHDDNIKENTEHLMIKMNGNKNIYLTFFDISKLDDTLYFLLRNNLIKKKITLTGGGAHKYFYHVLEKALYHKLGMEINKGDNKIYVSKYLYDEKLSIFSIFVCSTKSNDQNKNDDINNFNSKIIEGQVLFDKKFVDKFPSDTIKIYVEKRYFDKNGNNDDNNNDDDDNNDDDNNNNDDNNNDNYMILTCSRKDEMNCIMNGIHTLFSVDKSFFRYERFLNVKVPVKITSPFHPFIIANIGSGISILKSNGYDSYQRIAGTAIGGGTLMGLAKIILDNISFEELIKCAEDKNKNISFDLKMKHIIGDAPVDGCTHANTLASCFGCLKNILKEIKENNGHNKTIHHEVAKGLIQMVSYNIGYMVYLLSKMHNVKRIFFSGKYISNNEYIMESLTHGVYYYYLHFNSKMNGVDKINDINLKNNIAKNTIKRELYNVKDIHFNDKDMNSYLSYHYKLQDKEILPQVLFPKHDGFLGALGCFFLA
# [2] = molecular target: T1, PfPanK1; assay: Screening of natural compounds for PfPanK inhibitors and IC50 determination (recombinant enzyme, ADP Hunter Plus); assay type: biochemical
# Protocol: We screened 247 compounds from the Kitasato Natural Products Library ([Mori et al., 2015]; [Nurkanto et al., 2018]) against PfPanK recombinant enzyme. Compounds were dissolved in 50% DMSO at a final concentration of 1 mg/ml.
# [3] = substrate pair pantetheine and ATP
# [4] = substrate pair pantetheine and ATP, 120 µM ATP or 100 µM pantetheine, 37°C
# [5] = substrate pair pantothenate and ATP
# [6] = pantetheine as substrate, 100 μM ATP, pH 8.4, 37°C
# [7] = primary screening; compound at 50 µM final concentration (methods: 50 µg/ml); 37°C, 2 h
# [8] = metal ion 5 mM, substrate pantetheine, relative to MgCl2, pH 8.4, 37°C
# [9] = metal ion 5 mM, substrate pantothenate, relative to MgCl2, pH 8.4, 37°C
compound,measurement,setting,value
Nc1ncnc2c1ncn2[C@@H]1O[C@H](COP(=O)(O)OP(=O)(O)OP(=O)(O)O)[C@@H](O)[C@H]1O [ATP],K m,[1],59.3 ± 7.9 µM
same,Relative activity (%) Pantothenate,[1]; pH 8.4,100%
same,Relative activity (%) Pantetheine,"[1]; phosphoryl donor (NTP) 100 µM, substrate pantetheine, relative to ATP, pH 8.4, 37°C",100%
same,V max,[1]; [3],18.3 ± 3.0 µmol/min/mg
same,k cat,[1]; [3],20.55 ± 0.9 s⁻¹
same,k cat/K m,[1]; [3],26.6 ± 6.3 min^-1µM^-1
same,K m,[1]; [4],43.4 ± 3.3 µM and 43.4 ± 3.4 µM
same,V max,[1]; [5],15.9 ± 2.5 µmol/min/mg
same,k cat,[1]; [5],16.1 ± 1.72 s⁻¹
same,k cat/K m,[1]; [5],16.1 ± 1.0 min^-1µM^-1
CC(=O)SCCNC(=O)CCNC(=O)[C@H](O)C(C)(C)COP(=O)(O)OP(=O)(O)OC[C@H]1O[C@@H](n2cnc3c(N)ncnc32)[C@H](O)[C@@H]1OP(=O)(O)O [Acetyl CoA],Effect on PfPanK1 activity,[1]; [6],did not affect PfPanK1 activity
same,IC50,[1]; pantothenate as substrate,> 1000 µM
CC1(C)S[C@@H]2[C@H](NC(=O)[C@H](N)c3ccc(O)cc3)C(=O)N2[C@H]1C(=O)O [Amoxicillin],inhibition,"[2]; primary screening; 37°C, 2 h",45.7%
CON1C(=O)[C@H]2NC(=O)[C@]13Oc1cc(O)c(Cl)cc1[C@@H]3SS2 [Aspirochlorine],inhibition,"[2]; 2 h, primary screening; 37°C",49.7%
C/C=C\C=C\[C@@H]1O[C@](O)([C@H](CC)C(=O)NC/C=C/C=C(\C)[C@@H](OC)[C@@H](C)[C@@H]2O[C@H](/C=C/C=C/C=C(\C)C(=O)c3c(O)ccn(C)c3=O)[C@H](O)[C@@H]2O)[C@H](O)[C@H](O)C1(C)C [Aurodox],PfPanK1 Inhibition (%),[2]; [7],52.2%
Nc1ccn([C@@H]2O[C@H](COP(=O)(O)OP(=O)(O)OP(=O)(O)O)[C@@H](O)[C@H]2O)c(=O)n1 [CTP],Relative activity (%) Pantetheine,[1]; pH 8.4,11.3 ± 0.6%
same,Relative activity (%) Pantothenate,[1]; pH 8.4,28.1 ± 2.8%
[Ca+2].[Cl-].[Cl-] [CaCl2],Relative activity (%) Pantetheine,[1]; [8],30.5 ± 1.6%
same,Relative activity (%) Pantothenate,[1]; [9],39.9 ± 4.7%
Cc1nnc(SCC2=C(C(=O)O)N3C(=O)[C@@H](NC(=O)Cn4cnnn4)[C@H]3SC2)s1 [Cefazolin],inhibition,"[2]; 2 h, primary screening; 37°C",44.2%
"CC(C)(COP(=O)(O)OP(=O)(O)OC[C@H]1O[C@@H](n2cnc3c(N)ncnc32)[C@H](O)[C@@H]1OP(=O)(O)O)[C@@H](O)C(=O)NCCC(=O)NCCS [CoA, Coenzyme A]",Effect on PfPanK1 activity,[1]; pH 8.4,inhibited
same,Effect on PfPanK1 activity,[1]; [6],inhibited
[Cl-].[Cl-].[Co+2] [CoCl2],Relative activity (%) Pantetheine,"[1]; pH 8.4, 37°C",22.3 ± 1.0%
same,Relative activity (%) Pantothenate,"[1]; pH 8.4, 37°C",25.8 ± 1.9%
[Cl][Cu][Cl] [CuCl2],Relative activity (%) Pantetheine,[1]; [8],8.5 ± 1.3%
same,Relative activity (%) Pantothenate,[1]; [9],16.4 ± 1.5%
CN[C@@H]1[C@H](O[C@H]2[C@H](O[C@H]3[C@H](O)[C@@H](O)[C@H](NC(=N)N)[C@@H](O)[C@@H]3NC(=N)N)O[C@@H](C)[C@]2(O)CO)O[C@@H](CO)[C@H](O)[C@H]1O [Dihydrostreptomycin],inhibition,"[2]; 2 h, primary screening; 37°C",44.7%
CS[C@H]1SC[C@H]2C(=O)N(C)[C@@H](C(C)C)C(=O)OC[C@@H](NC(=O)c3cnc4ccccc4n3)C(=O)N[C@@H](C)C(=O)N(C)[C@@H]1C(=O)N(C)[C@@H](C(C)C)C(=O)OC[C@@H](NC(=O)c1cnc3ccccc3n1)C(=O)N[C@@H](C)C(=O)N2C [Echinomycin],inhibition,"[2]; 2 h, primary screening; 37°C",47.1%
[Cl][Fe][Cl] [FeCl2],Relative activity (%) Pantetheine,[1]; [8],58.3 ± 3.3%
same,Relative activity (%) Pantetheine,"[1]; metal ion 5 mM, substrate pantetheine, relative to MgCl2, pH 8.4, 37°C, listed as Ferrous cation",approximately 60%
same,Relative activity (%) Pantothenate,[1]; [9],104.7 ± 14.9%
Nc1nc2c(ncn2[C@@H]2O[C@H](COP(=O)(O)OP(=O)(O)OP(=O)(O)O)[C@@H](O)[C@H]2O)c(=O)[nH]1 [GTP],Relative activity (%) Pantetheine,[1]; pH 8.4,106.5 ± 4.4%
same,Relative activity (%) Pantothenate,[1]; pH 8.4,107.6 ± 8.1%
[Cl-].[K+] [KCl],Relative activity (%) Pantetheine,[1]; [8],33.6 ± 3.4%
same,Relative activity (%) Pantothenate,[1]; [9],29.7 ± 2.3%
CO[C@@H]1[C@@H](O[C@@H]2O[C@H](C)[C@@H](O[C@H]3C[C@@](C)(O)[C@@H](OC(=O)CC(C)C)[C@H](C)O3)[C@H](N(C)C)[C@H]2O)[C@@H](CC=O)C[C@@H](C)[C@@H](O)/C=C/C=C/C[C@@H](C)OC(=O)C[C@H]1OC(C)=O [Leucomycin A3],inhibition,"[2]; 2 h, primary screening; 37°C",40.1%
[Cl-].[Li+] [LiCl2],Relative activity (%) Pantetheine,[1]; [8],32.6 ± 4.1%
same,Relative activity (%) Pantothenate,[1]; [9],37.9 ± 9.6%
CCC[C@@H]1C[C@@H](C(=O)N[C@@H]([C@H]2O[C@H](SC)[C@H](O)[C@@H](O)[C@H]2O)[C@@H](C)O)N(C)C1 [Lincomycin],inhibition,"[2]; 2 h, primary screening; 37°C",41.3%
NC[C@@H]1O[C@H](O[C@H]2[C@@H](O)[C@H](O[C@@H]3[C@@H](O)[C@H](N)C[C@H](N)[C@H]3O[C@H]3O[C@H](CO)[C@@H](O)C[C@H]3N)O[C@@H]2CO)[C@H](N)[C@@H](O)[C@@H]1O[C@H]1O[C@H](CO)[C@@H](O)[C@H](O)[C@@H]1O [Lividomycin A],inhibition,"[2]; 2 h, primary screening; 37°C",44%
[Cl-].[Cl-].[Mg+2] [MgCl2],Relative activity (%) Pantetheine,[1]; [8],100%
same,Relative activity (%) Pantothenate,[1]; [9],100%
[Cl][Mn][Cl] [MnCl2],Relative activity (%) Pantetheine,[1]; [8],55.3 ± 0.1%
same,Relative activity (%) Pantothenate,[1]; [9],41.7 ± 8.4%
[Cl-].[Na+] [NaCl],Relative activity (%) Pantetheine,[1]; pH 8.4,33.1 ± 6.2%
same,Relative activity (%) Pantothenate,[1]; pH 8.4,41.4 ± 5.3%
[Cl][Ni][Cl] [NiCl2],Relative activity (%) Pantetheine,[1]; [8],41.4 ± 3.4%
same,Relative activity (%) Pantothenate,[1]; [9],49.0 ± 5.5%
CC(C)(CO)[C@@H](O)C(=O)NCCC(=O)NCCS [Pantetheine],V max,[1]; [3],19.6 ± 1.2 µmol/min/mg
same,k cat,[1]; [3],19.52 ± 0.417 s⁻¹
same,k cat/K m,[1]; [3],25.6 ± 0.7 min^-1µM^-1
same,K m,[1]; [4],45.7 ± 6.9 µM
CC(C)(CO)[C@@H](O)C(=O)NCCC(=O)O [Pantothenate],K m,[1],44.6 ± 5.6 µM
same,k cat/K m,[1],19.1 ± 1.0 min^-1µM^-1
same,V max,[1]; [5],14.2 ± 0.71 µmol/min/mg
same,k cat,[1]; [5],14.2 ± 1.28 s⁻¹
NC[C@H]1O[C@H](O[C@H]2[C@H](O[C@@H]3O[C@H](CO)[C@@H](O)[C@H]3O)[C@@H](O)[C@H](N)C[C@@H]2N)[C@H](N)[C@@H](O)[C@@H]1O [Ribostamycin],inhibition,"[2]; 2 h, primary screening; 37°C",46.6%
"CN[C@@H]1[C@H](O)[C@H](NC)[C@H]2O[C@@]3(O)C(=O)C[C@@H](C)O[C@H]3O[C@@H]2[C@H]1O [Spectinomycin (Actinospectacin), Spectinomycin]",PfPanK1 Inhibition (%),[2]; [7],55.0%
"CN[C@@H]1[C@H](O)[C@H](NC)[C@H]2O[C@@]3(O)C(=O)C[C@@H](C)O[C@H]3O[C@@H]2[C@H]1O [Spectinomycin (Trobicin), Spectinomycin]",inhibition,"[2]; 2 h, primary screening; 37°C",47.8%
Cc1cn([C@H]2C[C@H](O)[C@@H](COP(=O)(O)OP(=O)(O)OP(=O)(O)O)O2)c(=O)[nH]c1=O [TTP],Relative activity (%) Pantetheine,[1]; pH 8.4,0.0 ± 0.0%
same,Relative activity (%) Pantothenate,[1]; pH 8.4,13.1 ± 1.0%
C=C/C(C)=C/[C@@]1(C)SC(=O)C(C)=C1O [Thiolactomycin],inhibition,"[2]; primary screening; 37°C, 2 h",42.4%
CC(/C=C/C(O)=C1/C(=O)CNC1=O)=C\[C@@H](C)[C@H]1O[C@@]2(C)O[C@H](C(=O)[C@H]3O[C@]32C)[C@@H]1C [Tirandamycin A],PfPanK1 Inhibition (%),[2]; [7],49.7%
CC(/C=C/C(=O)NO)=C\[C@@H](C)C(=O)c1ccc(N(C)C)cc1 [Trichostatin],inhibition,"[2]; primary screening; 37°C, 2 h",47.2%
O=c1ccn([C@@H]2O[C@H](COP(=O)(O)OP(=O)(O)OP(=O)(O)O)[C@@H](O)[C@H]2O)c(=O)[nH]1 [UTP],Relative activity (%) Pantetheine,[1]; pH 8.4,23.8 ± 2.3%
same,Relative activity (%) Pantothenate,[1]; pH 8.4,64.1 ± 1.0%
[Cl-].[Cl-].[Zn+2] [ZnCl2],Relative activity (%) Pantetheine,[1]; [8],29.0 ± 0.6%
same,Relative activity (%) Pantothenate,[1]; [9],35.6 ± 5.6%
Nc1ncnc2c1ncn2[C@H]1C[C@H](O)[C@@H](COP(=O)(O)OP(=O)(O)OP(=O)(O)O)O1 [dATP],Relative activity (%) Pantetheine,[1]; pH 8.4,8.5 ± 2.7%
same,Relative activity (%) Pantothenate,[1]; pH 8.4,9.0 ± 2.2%
CC(C)(CO)C(O)C(=O)NCCCO (stereo not shown) [panthenol],Increase of enzyme activity,"[1]; high concentrations of panthenol (e.g., 0.5 mM), regardless of the substrates",up to 40%
same,Effect on PfPanK1 activity,[1]; [6],did not inhibit PfPanK1 activity
same,Effect on PfPanK1 activity,"[1]; pantothenate as substrate, 100 μM ATP, pH 8.4, 37°C",did not inhibit PfPanK1 activity
Gardimycin,PfPanK1 Inhibition (%),[2]; [7],42.5%
Gramicidin NF,PfPanK1 Inhibition (%),[2]; [7],45.5%
Thaimycin,PfPanK1 Inhibition (%),[2]; [7],53.9%
